In test [1] the target is T1, human orexin-2 receptor (Homo sapiens (Human), UniProt O43614). The test is described as follows: FLIPR Ca2+ Flux Assay, CHO cells expressing human orexin-2 receptor. In kind it is cell-based. The following applies: 70 pM Ala-6,12 orexin-A agonist, read-out: hOX2R FLIPR IC50. The procedure: (§1) The utility of the compounds in accordance with the present invention as orexin receptor OX1R and/or OX2R antagonists may be readily determined without undue experimentation by methodology well known in the art, including the “FLIPR Ca^2+ Flux Assay” (Okumura et al., Biochem. Biophys. Res. Comm. 280:976-981, 2001). In a typical experiment the OX1 and OX2 receptor antagonistic activity of the compounds of the present invention was determined in accordance with the following experimental method. For intracellular calcium measurements, Chinese hamster ovary (CHO) cells expressing the rat orexin-1 receptor or the human orexin-2 receptor, are grown in Iscove's modified DMEM containing 2 mM L-glutamine, […], 1% hypoxanthine-thymidine supplement, 100 U/ml penicillin, 100 ug/ml streptomycin and 10% heat-inactivated fetal calf serum (FCS). The cells are seeded at 20,000 cells/well into Becton-Dickinson black 384-well clear bottom sterile plates coated with poly-D-lysine. All reagents were from GIBCO-Invitrogen Corp. The seeded plates are incubated overnight at 37° C. and 5% CO2. Ala-6,12 human orexin-A as the agonist is prepared as a 1 mM stock solution in 1% bovine serum albumin (BSA) and diluted in assay buffer (HBSS containing 20 mM HEPES, 0.1% BSA and 2.5 mM probenecid, pH7.4) for use in the assay at a final concentration of 70 pM. Test compounds are prepared as 10 mM stock solution in DMSO, then diluted in 384-well plates, first in DMSO, then assay buffer. On the day of the assay, cells are washed 3 times with 100 ul assay buffer and then incubated for 60 min (37° C., 5% CO2) in 60 ul assay buffer containing 1 uM Fluo-4AM ester, 0.02% pluronic acid, and 1% BSA. The dye loading solution is then aspirated and cells are washed 3 times with 100 ul assay buffer. 30 ul of that same buffer is left in each well. Within the Fluorescent Imaging Plate Reader (FLIPR, Molecular Devices), test compounds are added to the plate in a volume of 25 ul, incubated for 5 min and finally 25 ul of agonist is added. Fluorescence is measured for each well at 1 second intervals for 5 minutes and the height of each fluorescence peak is compared to the height of the fluorescence peak induced by 70 pM Ala-6,12 orexin-A with buffer in place of antagonist. […] Alternatively, compound potency can be assessed by a radioligand binding assay (described in Bergman et. al. Bioorg. Med. Chem. Lett. 2008, 18, 1425-1430) in which the inhibition constant (Ki) is determined in membranes prepared from CHO cells expressing either the OX1 or OX2 receptor. The intrinsic orexin receptor antagonist activity of a compound which may be used in the present invention may be determined by these assays.
T1 sequence (O43614 whole entry): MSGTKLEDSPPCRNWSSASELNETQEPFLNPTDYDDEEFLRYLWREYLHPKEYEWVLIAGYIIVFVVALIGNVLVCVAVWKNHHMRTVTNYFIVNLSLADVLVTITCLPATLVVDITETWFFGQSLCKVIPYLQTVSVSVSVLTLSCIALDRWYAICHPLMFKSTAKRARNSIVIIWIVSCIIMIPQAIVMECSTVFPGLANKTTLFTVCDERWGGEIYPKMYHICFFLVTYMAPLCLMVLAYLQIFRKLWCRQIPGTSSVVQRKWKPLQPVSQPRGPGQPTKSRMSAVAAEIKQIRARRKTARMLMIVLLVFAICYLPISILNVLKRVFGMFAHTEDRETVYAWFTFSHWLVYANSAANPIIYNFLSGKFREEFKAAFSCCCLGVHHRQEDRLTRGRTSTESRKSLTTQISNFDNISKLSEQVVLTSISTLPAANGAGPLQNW
(Calcium assays in cells follow changes in intracellular calcium, usually with a dye or a luminescent sensor.)

Test [2] deals with T1, human orexin-2 receptor. The test is described as follows: radioligand binding assay, orexin-2 receptor (membranes from CHO cells). The note with it: CHO cell membranes, read-out: hOX2 hKi. On the procedure:
as §1

In a further test the target is OX1 receptor (hOX1) (Homo sapiens, UniProt O43613). The test is described as follows: radioligand binding assay, orexin-1 receptor (membranes from CHO cells). The following applies: CHO cell membranes, read-out: hOX1 hKi. On the procedure: In a typical experiment the OX1 and OX2 receptor antagonistic activity of the compounds of the present invention was determined in accordance with the following experimental method. For intracellular calcium measurements, Chinese hamster ovary (CHO) cells expressing the rat orexin-1 receptor or the human orexin-2 receptor, are grown in Iscove's modified DMEM containing 2 mM L-glutamine, […], 1% hypoxanthine-thymidine supplement, 100 U/ml penicillin, 100 ug/ml streptomycin and 10% heat-inactivated fetal calf serum (FCS). The cells are seeded at 20,000 cells/well into Becton-Dickinson black 384-well clear bottom sterile plates coated with poly-D-lysine. All reagents were from GIBCO-Invitrogen Corp. The seeded plates are incubated overnight at 37° C. and 5% CO2. Ala-6,12 human orexin-A as the agonist is prepared as a 1 mM stock solution in 1% bovine serum albumin (BSA) and diluted in assay buffer (HBSS containing 20 mM HEPES, 0.1% BSA and 2.5 mM probenecid, pH7.4) for use in the assay at a final concentration of 70 pM. Test compounds are prepared as 10 mM stock solution in DMSO, then diluted in 384-well plates, first in DMSO, then assay buffer. On the day of the assay, cells are washed 3 times with 100 ul assay buffer and then incubated for 60 min (37° C., 5% CO2) in 60 ul assay buffer containing 1 uM Fluo-4AM ester, 0.02% pluronic acid, and 1% BSA. The dye loading solution is then aspirated and cells are washed 3 times with 100 ul assay buffer. 30 ul of that same buffer is left in each well. Within the Fluorescent Imaging Plate Reader (FLIPR, Molecular Devices), test compounds are added to the plate in a volume of 25 ul, incubated for 5 min and finally 25 ul of agonist is added. Fluorescence is measured for each well at 1 second intervals for 5 minutes and the height of each fluorescence peak is compared to the height of the fluorescence peak induced by 70 pM Ala-6,12 orexin-A with buffer in place of antagonist. […] Alternatively, compound potency can be assessed by a radioligand binding assay (described in Bergman et. al. Bioorg. Med. Chem. Lett. 2008, 18, 1425-1430) in which the inhibition constant (Ki) is determined in membranes prepared from CHO cells expressing either the OX1 or OX2 receptor. The intrinsic orexin receptor antagonist activity of a compound which may be used in the present invention may be determined by these assays.

The target of the next test is rat orexin-1 receptor (Rattus norvegicus (Rat), UniProt P56718). Briefly: FLIPR Ca2+ Flux Assay, CHO cells expressing rat orexin-1 receptor.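 Also: concentration giving 50% inhibition of the agonist-induced calcium response.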 In kind it is cell-based. The following applies: 70 pM Ala-6,12 orexin-A agonist, read-out: hOX1R FLIPR IC50. On the procedure: as §1
Sequence of rat orexin-1 receptor (P56718 whole entry): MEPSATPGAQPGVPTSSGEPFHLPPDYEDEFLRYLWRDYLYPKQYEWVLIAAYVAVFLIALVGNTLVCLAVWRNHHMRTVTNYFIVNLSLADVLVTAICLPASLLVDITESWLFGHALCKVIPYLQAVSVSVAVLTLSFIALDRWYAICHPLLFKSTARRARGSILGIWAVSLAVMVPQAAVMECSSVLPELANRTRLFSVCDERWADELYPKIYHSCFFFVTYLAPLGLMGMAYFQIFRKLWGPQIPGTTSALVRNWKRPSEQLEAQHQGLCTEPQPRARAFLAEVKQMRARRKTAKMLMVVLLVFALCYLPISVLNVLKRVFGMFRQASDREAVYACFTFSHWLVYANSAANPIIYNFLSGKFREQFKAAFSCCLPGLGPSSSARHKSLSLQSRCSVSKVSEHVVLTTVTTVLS

For 15 compounds, IC50 and Ki results are on record in US20130102619A1, “2-PYRIDYLOXY-4-NITRILE OREXIN RECEPTOR ANTAGONISTS” (priority 2011, published 2013).

As for `C[C@@H]1CC[C@@H](Oc2cc(C#N)ccn2)CN1C(=O)c1cccc(F)c1-n1nccn1` [Example 6, 2-{[(3R,6R)-1-{[3-fluoro-2-(2H-1,2,3-triazol-2-yl)phenyl]carbonyl}-6-methylpiperidin-3-yl]oxy}pyridine-4-carbonitrile], the IC50 (in general, the concentration that inhibits the measured activity by half) is 0.018 µM on human orexin-2 receptor [1] and greater than 10 µM at rat orexin-1 receptor. Also, the results for the Ki on human orexin-2 receptor [2] and at OX1 receptor (hOX1) were 0.0055 µM and 1.9 µM, respectively.
Regarding `C[C@@H]1CC[C@@H](Oc2cc(C#N)ccn2)CN1C(=O)c1ccc(Cl)cc1-n1nccn1` [Example 7, 2-{[(3R,6R)-1-{[4-chloro-2-(2H-1,2,3-triazol-2-yl)phenyl]carbonyl}-6-methylpiperidin-3-yl]oxy}pyridine-4-carbonitrile], the IC50 at human orexin-2 receptor [1] was found to be 0.017 µM; on rat orexin-1 receptor, 3.84 µM. Moreover, the Ki on human orexin-2 receptor [2] turned out to be 0.0011 µM; at OX1 receptor (hOX1) it was 0.997 µM.
As to `C[C@@H]1CC[C@@H](Oc2cc(C#N)ccn2)CN1C(=O)c1ccc(F)cc1-n1nccn1` [Example 8, 2-{[(3R,6R)-1-{[4-fluoro-2-(2H-1,2,3-triazol-2-yl)phenyl]carbonyl}-6-methylpiperidin-3-yl]oxy}pyridine-4-carbonitrile], the IC50 was 0.029 µM at human orexin-2 receptor [1] and greater than 10 µM at rat orexin-1 receptor. Also, the Ki at human orexin-2 receptor [2] was 0.0035 µM; on OX1 receptor (hOX1), 2.91 µM.
Take `Cc1ccc(C(=O)N2C[C@H](Oc3cc(C#N)ccn3)CC[C@H]2C)c(-n2nccn2)c1` [Example 9, 2-{[(3R,6R)-6-methyl-1-{[4-methyl-2-(2H-1,2,3-triazol-2-yl)phenyl]carbonyl}piperidin-3-yl]oxy}pyridine-4-carbonitrile]: the IC50 amounted to 0.022 µM on human orexin-2 receptor [1] and 7.15 µM on rat orexin-1 receptor. Besides, the Ki on human orexin-2 receptor [2] is 0.0037 µM; at OX1 receptor (hOX1), 1.25 µM.
As to `C[C@@H]1CC[C@@H](Oc2cc(C#N)ccn2)CN1C(=O)c1ccsc1-n1nccn1` [Example 10, 2-{[(3R,6R)-6-methyl-1-{[2-(2H-1,2,3-triazol-2-yl)thiophen-3-yl]carbonyl}piperidin-3-yl]oxy}pyridine-4-carbonitrile], the values for the IC50 at human orexin-2 receptor [1] and at rat orexin-1 receptor were 0.029 µM and greater than 10 µM, respectively. Besides, the Ki amounted to 0.0059 µM at human orexin-2 receptor [2] and 3.57 µM on OX1 receptor (hOX1).
As to `C[C@@H]1CC[C@@H](Oc2cc(C#N)ccn2)CN1C(=O)c1sccc1-n1nccn1` [Example 14, 2-{[(3R,6R)-6-methyl-1-{[3-(2H-1,2,3-triazol-2-yl)thiophen-2-yl]carbonyl}piperidin-3-yl]oxy}pyridine-4-carbonitrile], the results for the IC50 on human orexin-2 receptor [1] and at rat orexin-1 receptor were 0.065 µM and greater than 10 µM, respectively. The values for the Ki at human orexin-2 receptor [2] and on OX1 receptor (hOX1) were 0.015 µM and 5.33 µM, respectively.
In the case of `C[C@@H]1CC[C@@H](Oc2cc(C#N)ccn2)CN1C(=O)c1cc(Br)ccc1-n1nccn1` [Example 15, 2-{[(3R,6R)-1-{[5-bromo-2-(2H-1,2,3-triazol-2-yl)phenyl]carbonyl}-6-methylpiperidin-3-yl]oxy}pyridine-4-carbonitrile], the IC50 on human orexin-2 receptor [1] worked out at 0.062 µM; on rat orexin-1 receptor, 1.04 µM. The Ki turned out to be 0.0091 µM on human orexin-2 receptor [2] and 0.265 µM at OX1 receptor (hOX1).
For `COc1ccc(C(=O)N2C[C@H](Oc3cc(C#N)ccn3)CC[C@H]2C)c(-n2nccn2)n1` [Example 17, 2-{[(3R,6R)-1-{[6-methoxy-2-(2H-1,2,3-triazol-2-yl)pyridin-3-yl]carbonyl}-6-methylpiperidin-3-yl]oxy}pyridine-4-carbonitrile], the IC50 is 0.082 µM at human orexin-2 receptor [1] and greater than 10 µM on rat orexin-1 receptor. In addition, the Ki turned out to be 0.015 µM at human orexin-2 receptor [2] and 5.64 µM at OX1 receptor (hOX1).
For `COc1ccc(C(=O)N2C[C@H](Oc3cc(C#N)ccn3)CC[C@H]2C)c(C2CC2)n1` [Example 20, 2-({(3R,6R)-1-[(2-cyclopropyl-6-methoxypyridin-3-yl)carbonyl]-6-methylpiperidin-3-yl}oxy)pyridine-4-carbonitrile] the same measures were 0.067 µM, greater than 10 µM, 0.0115 µM and 12.6 µM.
With `C[C@@H]1CC[C@@H](Oc2cc(C#N)ccn2)CN1C(=O)c1c(F)cccc1-n1nccn1` [Example 22, 2-{[(3R,6R)-1-{[2-fluoro-6-(2H-1,2,3-triazol-2-yl)phenyl]carbonyl}-6-methylpipeidin-3-yl]oxy}pyridine-4-carbonitrile], the IC50 came out at 0.023 µM at human orexin-2 receptor [1] and 5.75 µM on rat orexin-1 receptor. Moreover, the results for the Ki on human orexin-2 receptor [2] and at OX1 receptor (hOX1) were 0.0034 µM and 1.79 µM, respectively.
In the same order, the values of `C[C@@H]1CC[C@@H](Oc2cc(C#N)ccn2)CN1C(=O)c1ccc(Cl)cc1-n1nccn1` [Example 29, 2-{[(3R,6R)-1-{[4-chloro-2-(2H-1,2,3-triazol-2-yl)phenyl]carbonyl}-6-methylpiperidin-3-yl]oxy}pyridine-4-carbonitrile] are 0.012 µM, 3.4 µM, 0.0013 µM and 1.1 µM.
Consider `C[C@@H]1CC[C@@H](Oc2cc(C#N)ccn2)CN1C(=O)c1sccc1-c1ncccn1` [Example 31], for which the IC50 at human orexin-2 receptor [1] is 0.038 µM; at rat orexin-1 receptor, greater than 10 µM. The Ki stood at 0.0059 µM on human orexin-2 receptor [2] and 2.72 µM on OX1 receptor (hOX1).
For the compound `C[C@@H]1CC[C@@H](Oc2cc(C#N)ccn2)CN1C(=O)c1cccc(F)c1-c1ncccn1` [Example 33, 2-({(3R,6R)-1-[(3-fluoro-2-pyrimidin-2-ylphenyl)carbonyl]-6-methylpiperidin-3-yl}oxy)pyridine-4-carbonitrile], the 50% inhibitory concentration (IC50) was 0.052 µM at human orexin-2 receptor [1] and greater than 10 µM on rat orexin-1 receptor. The Ki on human orexin-2 receptor [2] came out at 0.0124 µM; on OX1 receptor (hOX1), 1.69 µM.
Consider `C[C@@H]1CC[C@@H](Oc2cc(C#N)ccn2)CN1C(=O)c1ccc(F)cc1-c1ncccn1` [Example 34, 2-({(3R,6R)-1-[(4-fluoro-2-pyrimidin-2-ylphenyl)carbonyl]-6-methylpiperidin-3-yl}oxy)pyridine-4-carbonitrile], for which the IC50 at human orexin-2 receptor [1] is 0.048 µM; at rat orexin-1 receptor, greater than 10 µM. In addition, the Ki at human orexin-2 receptor [2] was 0.0035 µM; on OX1 receptor (hOX1) it was 0.868 µM.
For the compound `C[C@@H]1CC[C@@H](Oc2cc(C#N)ccn2)CN1C(=O)c1cc(F)ccc1-c1ncccn1` [Example 35, 2-({(3R,6R)-1-[(5-fluoro-2-pyrimidin-2-ylphenyl)carbonyl]-6-methylpiperidin-3-yl}oxy)pyridine-4-carbonitrile], the IC50 is 0.031 µM on human orexin-2 receptor [1] and 8.04 µM at rat orexin-1 receptor. The figures for the Ki at human orexin-2 receptor [2] and on OX1 receptor (hOX1) were 0.001 µM and 0.658 µM, respectively.
